According to patent US9441012B2, “Fluorinated epoxyketone-based compounds and uses thereof as proteasome inhibitors” (FLUORINOV PHARMA INC., priority 2012, dated 2016):

Columns and labels:
Assay in all cases: NCI 60 human tumor cell line screen (SRB)
Format in all cases: cell-based
[1] = test system: A549/ATCC; conditions: A549/ATCC (Non-Small Cell Lung Cancer); 48 h
How it was run: (§1)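 Cells plated 24 h before dosing, with time-zero plates TCA-fixed at drug addition; five concentrations (10-fold or ½-log dilutions) added and incubated 48 h at 37 °C, 5% CO2. Adherent cells fixed with 10% TCA, stained with 0.4% SRB, absorbance read at 515 nm; GI50, TGI and LC50 derived from percentage growth versus time zero and control.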

[2] = test system: HCT-15; conditions: HCT-15 (Colon Cancer); 48 h
How it was run: as §1

[3] = test system: HOP-92; conditions: HOP-92 (Non-Small Cell Lung Cancer); 48 h
How it was run: as §1

[4] = test system: KM12; conditions: KM12 (Colon Cancer); 48 h
How it was run: as §1

[5] = test system: OVCAR-3; conditions: OVCAR-3 (Ovarian Cancer); 48 h
How it was run: as §1

[6] = test system: OVCAR-8; conditions: OVCAR-8 (Ovarian Cancer); 48 h
How it was run: as §1

[7] = test system: PC-3; conditions: PC-3 (Prostate Cancer); 48 h
How it was run: as §1

[8] = test system: SF-295; conditions: SF-295 (CNS Cancer); 48 h
How it was run: as §1

[9] = test system: SK-MEL-28; conditions: SK-MEL-28 (Melanoma); 48 h
How it was run: as §1

[10] = test system: SNB-75; conditions: SNB-75 (CNS Cancer); 48 h
How it was run: as §1

[11] = test system: UO-31; conditions: UO-31 (Renal Cancer); 48 h
How it was run: as §1

[12] = test system: IGROV1; conditions: IGROV1 (Ovarian Cancer); 48 h
How it was run: as §1

SMILES	Log10GI50 [1]	Log10LC50 [1]	Log10TGI50 [1]	Log10GI50 [2]	Log10LC50 [2]	Log10TGI50 [2]	Log10GI50 [3]	Log10LC50 [3]	Log10TGI50 [3]	Log10GI50 [4]	Log10LC50 [4]	Log10TGI50 [4]	Log10GI50 [5]	Log10LC50 [5]	Log10TGI50 [5]	Log10GI50 [6]	Log10LC50 [6]	Log10TGI50 [6]	Log10GI50 [7]	Log10LC50 [7]	further results
Cc1ncc(C(=O)N[C@@H](COC(F)F)C(=O)N[C@@H](COC(F)F)C(=O)N[C@@H](Cc2ccccc2)C(=O)[C@@]2(C)CO2)s1 [Example 1, 2-methyl-thiazole-5-carboxylic acid ((S)-1-{(S)-1-[(S)-1-benzyl-2-((R)-2-methyloxiranyl)-2-oxo-ethylcarbamoyl]-2-difluoromethoxyethylcarbamoyl}-2-difluoromethoxyethyl)-amide]	−6.41	>−4.00	>−4.00	−5.65	−4.16	−4.93	−6.23	−4.39	−5.40	−6.88	−6.10	−6.49	−7.46	−6.30	−6.90	−5.80	>−4.00	>−4.00	−6.48	>−4.00	Log10TGI50 [7]: −4.99; Log10GI50 [8]: −7.17; Log10LC50 [8]: −4.88; Log10TGI50 [8]: −6.24; Log10GI50 [9]: −6.85; Log10LC50 [9]: −4.69; Log10TGI50 [9]: −6.12; Log10GI50 [10]: −6.81; Log10LC50 [10]: >−4.00; Log10TGI50 [10]: −6.24; Log10GI50 [11]: −5.84; Log10LC50 [11]: −4.59; Log10TGI50 [11]: −5.32
CC(C)C[C@H](NC(=O)[C@H](Cc1ccccc1)NC(=O)[C@H](COC(F)F)NC(=O)CN1CCOCC1)C(=O)[C@@]1(C)CO1 [Example 25, (2S)-2-[[(2S)-3-(difluoromethoxy)-2-[(2-morpholinoacetyl)amino]propanoyl]amino]-N-[(1S)-3-methyl-1-[(2R)-2-methyloxirane-2-carbonyl]butyl]-3-phenyl-propanamide]	−7.41	>−4.00	−6.13	−6.47	>−4.00	>−4.00	−7.65	−6.35	−7.16	−7.72	−7.06	−7.39	−7.66	−6.97	−7.33	−7.32	>−4.00	−6.41	−7.45	−5.14	Log10GI50 [12]: −7.43; Log10LC50 [12]: >−4.00; Log10TGI50 [12]: −6.38; Log10TGI50 [7]: −6.80; Log10GI50 [8]: −7.68; Log10LC50 [8]: −6.49; Log10TGI50 [8]: −7.26; Log10GI50 [9]: −7.38; Log10LC50 [9]: −4.82; Log10TGI50 [9]: −6.69; Log10GI50 [10]: −7.71; Log10LC50 [10]: −6.35; Log10TGI50 [10]: −7.24; Log10GI50 [11]: −6.62; Log10LC50 [11]: −5.17; Log10TGI50 [11]: −5.95
C[C@]1(C(=O)[C@H](Cc2ccccc2)NC(=O)[C@H](COC(F)F)NC(=O)[C@H](COC(F)F)NC(=O)CN2CCOCC2)CO1 [Example 26, (S)-N-{(S)-1-[(S)-1-Benzyl-2-((R)-2-methyl-oxiranyl)-2-oxo-ethylcarbamoyl]-2-difluoromethoxyethyl}-3-difluoromethoxy-2-(2-morpholin-4-yl-acetylamino)-propio-namide]	−7.41	>−4.00	−6.13	−6.47	>−4.00	>−4.00	−7.65	−6.35	−7.16	−7.72	−7.06	−7.39	−7.66	−6.97	−7.33	−7.32	>−4.00	−6.41	−7.45	−5.14	Log10GI50 [12]: −7.43; Log10LC50 [12]: >−4.00; Log10TGI50 [7]: −6.80; Log10GI50 [8]: −7.68; Log10LC50 [8]: −6.49; Log10TGI50 [8]: −7.26; Log10GI50 [9]: −7.38; Log10LC50 [9]: −4.82; Log10TGI50 [9]: −6.69; Log10GI50 [10]: −7.71; Log10LC50 [10]: −6.35; Log10TGI50 [10]: −7.24; Log10GI50 [11]: −6.62; Log10LC50 [11]: −5.17; Log10TGI50 [11]: −5.95
C[C@]1(C(=O)[C@H](Cc2ccccc2)NC(=O)[C@H](Cc2ccccc2)NC(=O)[C@H](COC(F)F)NC(=O)CN2CCOCC2)CO1 [Example 29]	−6.68	>−4.00	>−4.00	−6.20	>−4.00	>−4.00	−7.18	−6.03	−6.55	−7.35	−6.27	−6.77	−7.35	−5.66	−6.71	−6.59	>−4.00	>−4.00	−7.04	>−4.00	Log10GI50 [12]: −6.67; Log10LC50 [12]: >−4.00; Log10TGI50 [12]: >−4.00; Log10TGI50 [7]: −6.40; Log10GI50 [8]: −7.19; Log10LC50 [8]: −5.94; Log10TGI50 [8]: −6.55; Log10GI50 [9]: −7.13; Log10LC50 [9]: >−4.00; Log10TGI50 [9]: −6.34; Log10GI50 [10]: −6.83; Log10LC50 [10]: −5.96; Log10TGI50 [10]: −6.41; Log10GI50 [11]: −6.46; Log10LC50 [11]: −4.62; Log10TGI50 [11]: −5.71
